Literature values as cited in US9119775B2, “Use of pilocarpine for hypoptyalism treatment” (priority 2004, dated 2015).

How the values were obtained:
salivary glands [1] = settings: according to the known pharmacokinetic studies
salivary glands [2] = test system: salivary glands

CC[C@@H]1C(=O)OC[C@@H]1Cc1cncn1C [pilocarpine]
duration of the effects of stimulation (salivary glands [1]): 4 to 8 h | delay of first action of the pilocarpine after intake (salivary glands [2]; oral method, after intake): 0.45 to 1 h | undesirable secondary effects (salivary glands [2]; oral tablets, 15 mg per day up to 30 mg per day, conducted over several weeks): nausea, excessive sweating, sensations of dizziness, hot flashes or asthenias
